{
  "source": "patent US11278504B1",
  "about": "“Treatment of a lionfish sting and formulations for use thereof” (priority 2019, dated 2022)",
  "key": {"P2X3 receptors": {"biological_target": "T1, P2X3 receptors (Mus musculus, UniProt Q3UR32)", "T1 construct": "endogenous in cells; host or cells: primary DRG cultures of TRPV1-Cre::GCaMP6f mice", "T1 sequence (Q3UR32 1-397)": "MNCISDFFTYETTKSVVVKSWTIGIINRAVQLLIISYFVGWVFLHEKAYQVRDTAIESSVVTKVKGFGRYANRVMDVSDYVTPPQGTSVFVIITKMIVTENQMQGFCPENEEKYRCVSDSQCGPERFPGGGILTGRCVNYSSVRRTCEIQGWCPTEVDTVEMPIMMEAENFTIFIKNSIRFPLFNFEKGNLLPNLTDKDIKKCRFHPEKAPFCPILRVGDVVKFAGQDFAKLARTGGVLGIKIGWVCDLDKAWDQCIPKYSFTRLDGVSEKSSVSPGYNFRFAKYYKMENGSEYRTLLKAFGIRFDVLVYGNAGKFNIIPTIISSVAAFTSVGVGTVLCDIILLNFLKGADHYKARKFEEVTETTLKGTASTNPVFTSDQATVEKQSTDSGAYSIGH", "format": "cell-based", "quoted_text": "Cre-dependent GCaMP6f mice (Ai95D; Jackson Labs) were crossed with TRPV1-Cre mice to express GCaMP6f in all nociceptors. In TRPV1-Cre::GCaMP6f mice, GCaMP6f expression is not limited to cells that are TRPV1-positive at maturity, because TRPV1 is expressed broadly amongst nociceptors early in development.\nDRG cultures were grown on 35 mm dishes. On the 3rd day, the cultures were treated with complexes of predesigned siRNA molecules directed against mouse P2X3 or a non-targeting control siRNA (Qiagen FlexiTube siRNA final concentration 100 nM) and 2 ul of HiPerFect transfection reagent. The cells were incubated with the transfection complexes for 48 to 72 hours with addition of fresh media 24 h post-transfection."}, "P2X3 receptor": {"biological_target": "T2, P2X3 receptor (Homo sapiens, UniProt P56373)", "T2 construct": "dorsal root ganglia were isolated from human organ donors and placed in culture; endogenous in cells; host or cells: primary sensory neurons cultured from human donor dorsal root ganglia", "T2 sequence (P56373 whole entry)": "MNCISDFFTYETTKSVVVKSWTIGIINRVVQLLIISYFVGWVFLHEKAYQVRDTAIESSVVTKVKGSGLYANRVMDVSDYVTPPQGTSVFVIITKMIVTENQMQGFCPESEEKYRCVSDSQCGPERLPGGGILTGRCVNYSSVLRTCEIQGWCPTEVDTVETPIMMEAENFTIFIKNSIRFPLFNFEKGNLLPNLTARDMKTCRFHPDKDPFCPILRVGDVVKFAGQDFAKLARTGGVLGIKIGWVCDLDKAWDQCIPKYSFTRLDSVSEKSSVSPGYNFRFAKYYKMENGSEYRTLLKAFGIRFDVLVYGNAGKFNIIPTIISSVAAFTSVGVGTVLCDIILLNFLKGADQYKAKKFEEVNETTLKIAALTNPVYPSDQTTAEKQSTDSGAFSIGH", "experiment": "Calcium imaging of cultured human nociceptors exposed to lionfish venom", "format": "cell-based", "conditions": "AF-353 300 nM, 8-minute incubation; p<0.001 Fisher's exact test", "description": "To verify the efficacy of this compound in humans, dorsal root ganglia were isolated from human organ donors and placed in culture between 3 and 5 hours after cross-clamping the heart. Sensory neurons were cultured for at least 5 days before performing any experiments to allow for satellite cell detachment. For calcium imaging experiments, human nociceptors were exposed to the lionfish venom in the presence of the P2X3 receptor antagonist AF-353 (300 nM), which was introduced in the bath solution (in mM: NaCl 150, KCl 3, Glucose 10, CaCl2) 2, and MgCl2 1; in distilled water, buffered to a pH of 7.3). Cells were incubated with AF-353 for 8-minutes either after an initial application of lionfish venom or before any applications of the venom. Venom was applied in 2-second puffs with a picospritzer as in FIG. 2."}, "P2X3": {"biological_target": "T3, P2X3 (Mus musculus, UniProt Q3UR32)", "T3 construct": "from tissue; host or cells: living mice, hind paw (whole animal, behavioural read-out)", "experiment": "Spontaneous pain assay, intraplantar AF-353 before or after lionfish venom", "format": "in vivo, mice", "conditions": "AF-353 3 mM in 20 μL intraplantar 30 minutes prior or within 2 minutes after 66 μg venom; 1 hour", "description": "AF-353 was prepared in a stock solution of 300 mM in DMSO and diluted to 3 mM in physiological saline for at the time of experimentation. Mice were injected with AF-353 intraplantarly either 30 minutes prior to injection of lionfish venom, to determine whether the compound could be used as a prophylactic treatment against lionfish envenomations, or immediately (within 2 minutes) after injection of lionfish venom in the paw, in order to determine whether the compound could be used as a treatment after lionfish envenomations. During the experiment, mice were placed on a glass surface with a mirror placed underneath at a 45-degree angle and kept in round Plexi-glass restrainers. A video camera filmed the animals' spontaneous pain behaviour for an hour. The amount of time the mice spent licking their paws was quantified by two independent and blinded experimenters.\nMice were injected with the vehicle (Veh) for AF-353 (DMSO) 30 minutes prior to injection of the Veh for the venom (physiological saline) (empty squares), venom (Vnm) followed by Veh (DMSO; black squares), AF-353 (AF, 3 mM in a total volume of 20 μL) followed by venom (light grey squares), or venom followed by AF-353 (dark grey squares). n=5 mice per group. The dose of venom injected was 66 μg of crude venom in a total volume of 20 μL (veh. saline). […] Stats: ***=P<0.001; **=P=0.009. Unpaired t test."}, "TRPV1 [1]": {"biological_target": "T4, TRPV1 (Mus musculus, UniProt Q704Y3)", "T4 sequence (Q704Y3 whole entry)": "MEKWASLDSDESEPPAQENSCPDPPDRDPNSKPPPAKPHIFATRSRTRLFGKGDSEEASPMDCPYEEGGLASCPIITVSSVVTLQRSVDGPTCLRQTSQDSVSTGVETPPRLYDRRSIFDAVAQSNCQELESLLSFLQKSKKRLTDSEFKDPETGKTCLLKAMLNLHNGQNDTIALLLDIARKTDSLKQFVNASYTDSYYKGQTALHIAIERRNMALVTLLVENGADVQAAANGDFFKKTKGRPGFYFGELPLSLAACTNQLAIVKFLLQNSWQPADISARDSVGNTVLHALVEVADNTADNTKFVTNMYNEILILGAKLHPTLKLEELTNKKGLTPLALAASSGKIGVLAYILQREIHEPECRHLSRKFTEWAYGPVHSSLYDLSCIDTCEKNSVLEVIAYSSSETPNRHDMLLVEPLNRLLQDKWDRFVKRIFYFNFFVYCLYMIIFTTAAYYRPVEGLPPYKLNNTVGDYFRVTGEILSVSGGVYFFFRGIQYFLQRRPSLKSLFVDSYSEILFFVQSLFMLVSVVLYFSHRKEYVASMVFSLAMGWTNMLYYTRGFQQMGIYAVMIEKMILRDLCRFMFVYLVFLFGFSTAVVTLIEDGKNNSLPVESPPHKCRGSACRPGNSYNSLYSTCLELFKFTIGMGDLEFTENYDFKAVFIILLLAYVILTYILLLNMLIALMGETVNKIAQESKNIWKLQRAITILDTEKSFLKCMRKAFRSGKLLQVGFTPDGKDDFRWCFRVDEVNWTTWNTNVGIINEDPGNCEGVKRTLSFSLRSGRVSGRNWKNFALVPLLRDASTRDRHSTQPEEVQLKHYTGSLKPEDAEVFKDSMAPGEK", "format": "cell-based, mice", "description": "To test the TRPV1 receptor antagonist, changes in intracellular calcium concentrations in single cells were recorded as changes in GCaMP6f fluorescence. Exposure to the antagonist (10 μM) and image analysis were performed in a manner similar to the bradykinin (BK) receptor antagonist described above. The TRPV1 receptor agonist capsaicin (1 μM) and lionfish venom were applied during 1 second over the imaging region."}, "TRPV1 [2]": {"biological_target": "T4, TRPV1", "format": "in vivo, mice", "conditions": "30 mg/kg intraperitoneal; 44 μg venom intraplantar; P=0.841 vs vehicle", "quoted_text": "Protein concentration in the venom extract was determined to be 2.2 μg/μL using the Bio-Rad DC assay. Mice (12-weeks old C57BL/6 males and females, The Jackson Laboratory) were placed in an observation chamber on a glass platform, under which a mirror was placed at a 45° angle so as to show the hind paw of the mouse to the recording videocamera. Once the mice were acclimatized to the chamber, they were taken out and injected in the ventral aspect of their left hind paw with a 20 μl solution of the crude or diluted venom (44 or 4.4 μg/20 μl). The venom was extracted in sterile physiological saline (0.9% NaCl) and the same vehicle was used for dilutions."}},
  "data": [
    {"smiles": "COc1cc(C(C)C)c(Oc2cnc(N)nc2N)cc1I", "note": "[AF-353]", "values": [
      {"measurement": "venom-elicited intracellular calcium responses in cultured mouse nociceptors", "setting": "P2X3 receptors", "value": "reversibly blocks"},
      {"measurement": "α,β,Me-ATP-elicited calcium responses in cultured mouse nociceptors", "setting": "P2X3 receptors; selective P2X3 receptor agonist α,β,Me-ATP", "value": "reversibly blocks"},
      {"measurement": "venom-induced calcium responses in human nociceptors", "setting": "P2X3 receptor", "value": "do not display calcium responses"},
      {"measurement": "pain caused by lionfish venom in vivo (time licking injected paw)", "setting": "P2X3", "value": "effective in reducing or eliminating pain"}
    ]},
    {"smiles": "CC(C)(C)c1ccc(/C=C/C(=O)Nc2ccc3c(c2)OCCO3)cc1", "note": "[AMG-9810]", "values": [
      {"measurement": "Proportion of cultured DRG neurons responding to capsaicin in the presence of AMG-9810", "setting": "TRPV1 [1]", "value": "0/65"},
      {"measurement": "effect on capsaicin-elicited rise in intracellular calcium (sample traces)", "setting": "TRPV1 [1]", "value": "blocked response"},
      {"measurement": "proportion of cells (DRG neurons) responding to the venom in the presence of AMG-9810", "setting": "TRPV1 [1]; AMG-9810 10 μM, Fisher exact test P=0.322", "value": "30/32"},
      {"measurement": "venom-elicited spontaneous pain behavior over 1 hour after AMG-9810 pretreatment", "setting": "TRPV1 [2]", "value": "independent"}
    ]},
    {"smiles": "COc1cc(CNC(=O)CCCC/C=C/C(C)C)ccc1O", "note": "[capsaicin]", "values": [
      {"measurement": "Proportion of cultured DRG neurons responding to capsaicin alone", "setting": "TRPV1 [1]", "value": "45/65"}
    ]}
  ]
}
